Results on three compounds are retold here after patent US11014925B2, “Co-crystals of 1-(4-fluoro-phenyl)-4-((6bR,1OaS)-3-methyl-2,3,6b,9,10,10a-hexahydro-1H,7H- pyrido[3′,4′:4,51_pyrrolo [1,2,3-delqcuinoxalin-8-yl)-butan-1-one with nicotinamide or isonicotinamide” (INTRA-CELLULAR THERAPIES, INC., priority 2016, dated 2021).

For data set [1] the following is noted: hydrochloride salt of U.S. Pat. No. 7,183,282; cited from earlier work.
For data set [2] the following is noted: hydrochloride salt of U.S. Pat. No. 7,183,282; cited from earlier work. The source holds these as a separate data set.
Data set [3] is described as follows: Dynamic Vapour Sorption (DVS) hygroscopicity. Format: physicochemical. As to the method:
Dynamic Vapour Sorption (DVS): The Dynamic Vapour Sorption studies are performed using a Surface Measurement Systems Ltd. DVS-1 No Video, equipment #2126. The sample is loaded into a balance pan, typically 20-30 mg, and equilibrated at 0% RH. After the material was dried, the RH is increased with 10% per step for 1 hour per increment, ending at 95% RH. After completion of the sorption cycle, the sample was dried using the same method. The software used for data collection is DVSWin v3.01 No Video. Data analysis is performed using DVS Standard Analysis Suite v6.3.0 (Standard).

The subject of another data set is muscarinic receptors. The note with it: cited from earlier work.
The conditions of data set [4]: free base form; in water and in many organic solvents; cited from earlier work.
Data set [5] is described as follows: solubility, general statements. Format: physicochemical. Particulars: general statement, solvent not given. On the procedure:
Solubility of free base in various solvents is evaluated, and based on the results of the solubility range, suitable solvents are selected for the co-crystal screen. Co-crystal formation is based on hydrogen bonding and stacking of the molecules, meaning the co-former selection is based on active groups. Grinding is a method to form co-crystals, however the free base itself is an oil/sticky solid and therefore not suitable for this method. The free base and counter ion are added to a solution in a certain ratio to give the chance to form a co-crystal, similar to salt formation. We found the best method is to add a saturated solution of the co-former to that of the free base to find an optimal ratio for co-crystal formation.

For another data set, the target named is T1, 5-HT2C receptors (Homo sapiens, UniProt P28335).
T1 sequence (P28335 33-458): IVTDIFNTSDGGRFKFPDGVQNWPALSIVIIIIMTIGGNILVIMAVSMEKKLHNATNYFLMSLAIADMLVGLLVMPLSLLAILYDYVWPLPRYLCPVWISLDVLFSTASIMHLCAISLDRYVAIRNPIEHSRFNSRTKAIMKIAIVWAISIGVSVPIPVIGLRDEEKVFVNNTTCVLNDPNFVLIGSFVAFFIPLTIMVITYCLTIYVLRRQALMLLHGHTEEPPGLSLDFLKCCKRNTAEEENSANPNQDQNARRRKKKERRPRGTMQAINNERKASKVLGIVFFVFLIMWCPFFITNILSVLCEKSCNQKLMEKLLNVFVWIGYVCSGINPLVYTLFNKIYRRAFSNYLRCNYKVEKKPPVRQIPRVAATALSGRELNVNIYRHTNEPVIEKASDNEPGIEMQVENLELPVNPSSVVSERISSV
Particulars: cited from earlier work.

Data set [6] addresses H1 histaminergic receptors (Homo sapiens, UniProt P35367). The note with it: cited from earlier work.

Read-outs that look alike come from different tables or passages of the source.

Chain of H1 histaminergic receptors (P35367 whole entry): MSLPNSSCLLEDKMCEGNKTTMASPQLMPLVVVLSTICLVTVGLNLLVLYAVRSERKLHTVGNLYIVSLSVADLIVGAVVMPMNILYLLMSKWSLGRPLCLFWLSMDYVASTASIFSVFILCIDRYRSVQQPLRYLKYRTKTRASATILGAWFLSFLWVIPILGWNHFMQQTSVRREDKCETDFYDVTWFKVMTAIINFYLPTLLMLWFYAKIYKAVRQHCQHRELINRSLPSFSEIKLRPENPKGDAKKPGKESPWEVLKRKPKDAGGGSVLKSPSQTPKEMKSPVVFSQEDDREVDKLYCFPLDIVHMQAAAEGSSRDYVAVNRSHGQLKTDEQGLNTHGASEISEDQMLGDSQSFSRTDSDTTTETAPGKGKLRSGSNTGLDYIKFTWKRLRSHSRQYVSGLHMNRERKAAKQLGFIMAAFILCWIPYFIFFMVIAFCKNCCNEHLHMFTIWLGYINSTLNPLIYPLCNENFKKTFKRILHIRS

Turning to `CN1CCN2c3c(cccc31)C1CN(CCCC(=O)c3ccc(F)cc3)CCC12.Cl` (stereo not shown) [hydrochloride salt form of ITI-007], the hygroscopicity entry in data set [1] was “hygroscopic”. The stability result in data set [2] is “poor stability”.

As to `CN1CCN2c3c(cccc31)C1CN(CCCC(=O)c3ccc(F)cc3)CCC12.NC(=O)c1ccncc1` (stereo not shown), in data set [3], the “Hygroscopicity (%)” value was found to be 0.2% and the “hygroscopicity (in words)” value was “not hygroscopic”. For the same compound, the mass uptake in data set [3] (at 95 RH %) worked out at 0.2%.

`CN1CCN2c3c(cccc31)[C@@H]1CN(CCCC(=O)c3ccc(F)cc3)CC[C@@H]12` [ITI-007, 1-(4-fluoro-phenyl)-4-((6bR,10aS)-3-methyl-2,3,6b,9,10,10a-hexahydro-1H,7H-pyrido[3′,4′:4,5]pyrrolo[1,2,3-de]quinoxalin-8-yl)-butan-1-one]: the binding result (with muscarinic receptors; on 5-HT2C receptors; in data set [6]) was “negligible binding” in each case. For the same compound, the solubility result is reported as “poor solubility” in data set [4] and “poorly soluble” in data set [5].
